This is an account of results in ChEMBL document CHEMBL1121533, “Synthesis of 8-methoxy-15,16-dinor-6,8,10-trichothecatriene 12,13 alpha-epoxide and 12,13 beta-epoxide as potential antineoplastic agents” (J Med Chem, 1980).

Series [1] has as its system P388. Briefly: Tested for in vivo antileukemic activity of compound against P388 at 50 mg/kg dose; NA means Not Active. Also noted: dose 50 mg/kg. The note with it: Mus musculus. The series is classed as functional, organism-based.
For series [2], the system named is P388. Briefly: Tested for in vivo antileukemic activity of compound against P388 at 12.5 mg/kg dose; NA means Not Active. The series is classed as functional, organism-based. Also noted: dose 12.5 mg/kg. The conditions noted are these: Mus musculus.
In series [3] the test system is P388. Nature of the series: Tested for in vivo antileukemic activity of compound against P388 at 25 mg/kg dose; NA means Not Active. In kind it is functional, organism-based. Also on record: dose 25 mg/kg. The note with it: Mus musculus.
Series [4] in a line: Tested for in vitro cytotoxic potency of compound in 9KB assay. The series is classed as cell-based. The note with it: human, KB (9KB) cells; read-out: ED50 (the source's name).

SMILES strings stand for the structures. Converted amounts (≈) assume the structure as drawn. The source made the active and inactive calls. The rule behind the calls is not given here.

On to `COc1ccc2c(c1)[C@@]1(C)CC[C@@H](O2)C12CC2`, for which the ED50 entry in the series on P388 [1], in the series with P388 [2] and in the series on P388 [3] was “inactive” throughout. Moreover, the CC50 in series [4] amounted to 26 µg/mL (≈ 113 µM).
